Assay results taken from patent US20110044938A1 (NYCOMED GMBH, priority 2006, published 2011).

Key:
[1] = system: RKO (RKOp27) human colon adenocarcinoma cells; assay: Alamar Blue cell viability assay, anti-proliferative/cytotoxic activity on proliferating RKO subclones; type: cell-based; settings: RKOp27, 72 h, RKO p27 uninduced (proliferating) cells, value = class bound given in Table A, read-out: −logIC50 RKO p27 uninduced (proliferating) (converted)
Procedure, shortened: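 RKOp27 subclones (5000 cells/well) were exposed 24 h after seeding to semi-log compound dilutions in DMEM with 10% FCS, in quadruplicate, for 72 h at 37 °C. Viability was read by Alamar Blue fluorescence (544/590 nm) relative to untreated cells (1% DMSO medium). IC50 came from concentration-effect curves and is reported as −log IC50 [mol/l].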

[2] = system: subclones of RKO colon adenocarcinoma cells (RKOp27 or RKOp21) arrested by Ponasterone A; assay: Alamar Blue cell viability assay, cell cycle specific mode of action: cells arrested by ectopic p27Kip1 induced by Ponasterone A versus proliferating cells; type: cell-based; settings: Homo sapiens, RKO p27 induced (arrested) cells, 10 μM Ponasterone A, 72 hours, value = class bound given in Table A, read-out: −logIC50 RKO p27 induced (arrested) (converted)
Procedure, shortened: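 RKOp27 or RKOp21 cells, 15000/well in DMEM/10% FCS, either arrested by p27Kip1 induced with 10 μM Ponasterone A or proliferating without inducer; compound added after 24 h, 72 h at 37° C. Alamar Blue fluorescence (544/590 nm), viability as % of untreated cells; −log IC50 reported.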

| IC50 [2] | Structure (SMILES) | IC50 [1] |
| --- | --- | --- |
| ≥ 100 µM | N#Cc1c(NC(=O)/C=C/c2cccnc2)sc2c1CC[C@H](COC(=O)N1CCC(O)CC1)C2 [Example 114a, 4-Hydroxy-piperidine-1 - carboxylic acid (S)-3-cyano-2-((E)-3-pyridin-3-yl-allanoylamino)-4,5,6,7-tetrahydro-benzo[b]thiophen-6-ylmethyl ester] | ≤ 0.501 µM |
| ≥ 100 µM | N#Cc1c(NC(=O)/C=C/c2cccnc2)sc2c1CC[C@@H](COC(=O)N1CCC(O)CC1)C2 [Example 114b, 4-Hydroxy-piperidine-1-carboxylic acid (R)-3-cyano-2-((E)-3-pyridin-3-yl-allanoylamino)-4,5,6,7-tetrahydro-benzo[b]thiophen-6-ylmethyl ester] | ≤ 0.501 µM |
| ≥ 100 µM | COC1CN(C(=O)OCC2CCc3c(sc(NC(=O)/C=C/c4cccnc4)c3C#N)C2)C1 (centres unmarked) [Example 115, 3-Methoxy-azetidine-1-carboxylic acid 3-cyano-2-((E)-3-pyridin-3-yl-allanoylamino)-4,5,6,7-tetrahydro-benzo[b]thiophen-6-ylmethyl ester] | 0.501 to 2 µM |
| ≥ 100 µM | N#Cc1c(NC(=O)/C=C/c2cccnc2)sc2c1CCC(COC(=O)N1CCCO1)C2 (centres unmarked) [Example 116, Isoxazolidine-2-carboxylic acid 3-cyano-2-((E)-3-pyridin-3-yl-allanoylamino)-4,5,6,7-tetrahydro-benzo[b]thiophen-6-ylmethyl ester] | ≤ 0.501 µM |
| ≥ 100 µM | N#Cc1c(NC(=O)/C=C/c2cccnc2)sc2c1CCC(COC(=O)N1CCCCO1)C2 (centres unmarked) [Example 117, [1,2]Oxazinane-2-carboxylic acid 3-cyano-2-((E)-3-pyridin-3-yl-allanoylamino)-4,5,6,7-tetrahydro-benzo[b]thiophen-6-ylmethyl ester] | ≤ 0.501 µM |
| ≥ 100 µM | COC1CN(C(=O)OC2CCc3c(sc(NC(=O)/C=C/c4cccnc4)c3C#N)C2)C1 (centres unmarked) [Example 118, 3-Methoxy-azetidine-1-carboxylic acid 3-cyano-2-((E)-3-pyridin-3-yl-allanoylamino)-4,5,6,7-tetrahydro-benzo[b]thiophen-6-yl ester] | 0.501 to 2 µM |
| ≥ 100 µM | N#Cc1c(NC(=O)/C=C/c2cccnc2)sc2c1CCC(OC(=O)N1CCCO1)C2 (centres unmarked) [Example 119, Isoxazolidine-2-carboxylic acid 3-cyano-2-((E)-3-pyridin-3-yl-allanoylamino)-4,5,6,7-tetrahydro-benzo[b]thiophen-6-yl ester] | ≤ 0.501 µM |
| ≥ 100 µM | N#Cc1c(NC(=O)/C=C/c2cccnc2)sc2c1CCC(OC(=O)N1CCCCO1)C2 (centres unmarked) [Example 120, [1,2]Oxazinane-2-carboxylic acid 3-cyano-2-((E)-3-pyridin-3-yl-allanoylamino)-4,5,6,7-tetrahydro-benzo[b]thiophen-6-yl ester] | ≤ 0.501 µM |
| ≥ 100 µM | N#Cc1c(NC(=O)/C=C/c2cccnc2)sc2c1CCC(COC(=O)N1CC(F)C1)C2 (centres unmarked) [Example 121, 3-Fluoro-azetidine-1-carboxylic acid 3-cyano-2-((E)-3-pyridin-3-yl-allanoylamino)-4,5,6,7-tetrahydro-benzo[b]thiophen-6-ylmethyl ester] | ≤ 0.501 µM |
| ≥ 100 µM | N#Cc1c(NC(=O)/C=C/c2cccnc2)sc2c1CCC(COC(=O)N1CC[C@@H](O)[C@@H](O)C1)C2 (stereo partly drawn) [Example 122, cis-3-, 4-Dihydroxy-piperidine-1-carboxylic acid 3-cyano-2-((E)-3-pyridin-3-yl-allanoylamino)-4,5,6,7-tetrahydro-benzo[b]thiophen-6-ylmethyl ester] | ≤ 0.501 µM |
| ≥ 100 µM | CN(CC(O)CO)C(=O)OCC1CCc2c(sc(NC(=O)/C=C/c3cccnc3)c2C#N)C1 (centres unmarked) [Example 123, (2,3-Dihydroxy-propyl)-methyl-carbamic acid 3-cyano-2-((E)-3-pyridin-3-yl-allanoylamino)-4,5,6,7-tetrahydro-benzo[b]thiophen-6-ylmethyl ester] | 0.501 to 2 µM |
| ≥ 100 µM | N#Cc1c(NC(=O)/C=C/c2cccnc2)sc2c1CCC(OC(=O)N1CC(F)C1)C2 (centres unmarked) [Example 124, 3-Fluoro-azetidine-1-carboxylic acid 3-cyano-2-((E)-3-pyridin-3-yl-allanoylamino)-4,5,6,7-tetrahydro-benzo[b]thiophen-6-yl ester] | ≤ 0.501 µM |
| ≥ 100 µM | N#Cc1c(NC(=O)/C=C/c2cccnc2)sc2c1CCC(OC(=O)N1CC[C@@H](O)[C@@H](O)C1)C2 (stereo partly drawn) [Example 125, cis-3-, 4-Dihydroxy-piperidine-1-carboxylic acid 3-cyano-2-((E)-3-pyridin-3-yl-allanoylamino)-4,5,6,7-tetrahydro-benzo[b]thiophen-6-yl ester] | 0.501 to 2 µM |
| ≥ 100 µM | CN(CC(O)CO)C(=O)OC1CCc2c(sc(NC(=O)/C=C/c3cccnc3)c2C#N)C1 (centres unmarked) [Example 126, (2,3-Dihydroxy-propyl)-methyl-carbamic acid 3-cyano-2-((E)-3-pyridin-3-yl-allanoylamino)-4,5,6,7-tetrahydro-benzo[b]thiophen-6-yl ester] | 0.501 to 2 µM |
| ≥ 100 µM | CS(=O)(=O)NC1CCN(C(=O)OC2CCc3c(sc(NC(=O)/C=C/c4cccnc4)c3C#N)C2)CC1 (centres unmarked) [Example 127, 4-Methane-sulfonylamino-piperidine-1-carboxylic acid 3-cyano-2-((E)-3-pyridin-3-yl-allanoylamino)-4,5,6,7-tetrahydro-benzo[b]thiophen-6-yl ester] | ≤ 0.501 µM |
| ≥ 100 µM | N#Cc1c(NC(=O)/C=C/c2cccnc2)sc2c1CCC(OC(=O)N[C@H]1CC[C@@H](O)CC1)C2 (stereo partly drawn) [Example 128, cis-4-Hydroxycyclohexyl-carbamic acid 3-cyano-2-((E)-3-pyridin-3-yl-allanoylamino)-4,5,6,7-tetrahydro-benzo[b]thiophen-6-yl ester] | 0.501 to 2 µM |
| ≥ 100 µM | Cc1ccncc1/C=C/C(=O)Nc1sc2c(c1C#N)CCC(COC(=O)N(C)C)C2 (centres unmarked) [Example 129, Dimethyl-carbamic acid 3-cyano-2-[(E)-3-(4-methyl-pyridin-3-yl)-allanoylamino]-4,5,6,7-tetrahydro-benzo[b]thiophen-6-ylmethyl ester] | ≤ 0.501 µM |
| ≥ 100 µM | Cc1ccncc1/C=C/C(=O)Nc1sc2c(c1C#N)CCC(COC(=O)N1CCCC1)C2 (centres unmarked) [Example 130, Pyrrolidine-1-carboxylic acid 3-cyano-2-[(E)-3-(4-methyl-pyridin-3-yl)-allanoylamino]-4,5,6,7-tetrahydro-benzo[b]thiophen-6-ylmethyl ester] | ≤ 0.501 µM |
| ≥ 100 µM | Cc1ccncc1/C=C/C(=O)Nc1sc2c(c1C#N)CCC(COC(=O)N1CCC[C@@H](O)C1)C2 (stereo partly drawn) [Example 131, (R)-3-Hydroxy-piperidine-1-carboxylic acid 3-cyano-2-[(E)-3-(4-methyl-pyridin-3-yl)-allanoylamino]-4,5,6,7-tetrahydro-benzo[b]thiophen-6-ylmethyl ester] | ≤ 0.501 µM |
| ≥ 100 µM | Cc1ccncc1/C=C/C(=O)Nc1sc2c(c1C#N)CCC(COC(=O)N1CC(O)C1)C2 (centres unmarked) [Example 132, 3-Hydroxy-azetidine-1-carboxylic acid 3-cyano-2-[(E)-3-(4-methyl-pyridin-3-yl)-allanoylamino]-4,5,6,7-tetrahydro-benzo[b]thiophen-6-ylmethyl ester] | 0.501 to 2 µM |
| ≥ 100 µM | Cc1ccncc1/C=C/C(=O)Nc1sc2c(c1C#N)CCC(COC(=O)N1CCC(O)CC1)C2 (centres unmarked) [Example 133, 4-Hydroxy-piperidine-1-carboxylic acid 3-cyano-2-[(E)-3-(4-methyl-pyridin-3-yl)-allanoylamino]-4,5,6,7-tetrahydro-benzo[b]thiophen-6-ylmethyl ester] | ≤ 0.501 µM |
| ≥ 100 µM | Cc1cc(CNC(=O)OCC2CCc3c(sc(NC(=O)/C=C/c4cnccc4C)c3C#N)C2)no1 (centres unmarked) [Example 134, (5-Methyl-isoxazol-3-ylmethyl)-carbamic acid 3-cyano-2-[(E)-3-(4-methyl-pyridin-3-yl)-allanoylamino]-4,5,6,7-tetrahydro-benzo[b]thiophen-6-ylmethyl ester] | ≤ 0.501 µM |
| ≥ 100 µM | Cc1ccncc1/C=C/C(=O)Nc1sc2c(c1C#N)CCC(COC(=O)N1CCC[C@H]1CO)C2 (stereo partly drawn) [Example 135, 2-(S)-(Hydroxymethyl) pyrrolidine-1-carbamic acid 3-cyano-2-[(E)-3-(4-methyl-pyridin-3-yl)-allanoylamino]-4,5,6,7-tetrahydro-benzo[b]thiophen-6-ylmethyl ester] | 0.501 to 2 µM |
| ≥ 100 µM | COC(=O)[C@@H]1CCCN1C(=O)OCC1CCc2c(sc(NC(=O)/C=C/c3cccnc3)c2C#N)C1 (stereo partly drawn) [Example 136, 2-(S)-Pyrrolidine-1,2-dicarboxylic acid 1-[3-cyano-2-((E)-3-pyridin-3-yl-allanoylamino)-4,5,6,7-tetrahydro-benzo[b]thiophen-6-ylmethyl] ester 2-methyl ester] | 0.501 to 2 µM |
| ≥ 100 µM | CC(C)CN(C)C(=O)OCC1CCc2c(sc(NC(=O)/C=C/c3cccnc3)c2C#N)C1 (centres unmarked) [Example 137, Isobutyl-methyl-carbamic acid 3-cyano-2-((E)-3-pyridin-3-yl-allanoylamino)-4,5,6,7-tetrahydro-benzo[b]thiophen-6-ylmethyl ester] | ≤ 0.501 µM |
